Patent publication US7365082B2, “N-(substituted arylmethyl)-4-(disubstituted methyl)piperidines and piperazines” (Bayer CropScience AG, priority 2002, dated 2008)

Tested on: tobacco budworm (Heliothis virescens [Fabricius])
Test: surface-treated diet test against tobacco budworm
Format: in vivo
Conditions: 0.25 millimoles of candidate insecticide on the surface of the diet, second instar larvae, five-day exposure; for Percent Mortality: compared to the total number of insects infested; for Percent Growth Inhibition: inhibition of insect weight relative to untreated controls
Procedure: Candidate insecticides were evaluated for activity against the tobacco budworm (Heliothis virescens [Fabricius]) in a surface-treated diet test.
In this test one mL of molten (65-70° C.) wheat germ-based artificial diet was pipetted into each well of a four by six (24 well) multi-well plate (ID# 430345-15.5 mm dia.×17.6 mm deep; Corning Costar Corp., One Alewife Center, Cambridge, Mass. 02140). The diet was allowed to cool to ambient temperature before treatment with candidate insecticide.
For a determination of insecticidal activity, solutions of the candidate insecticides were prepared for testing using a Packard 204DT Multiprobe® Robotic System (Packard Instrument Company, 800 Research Parkway, Meriden, Conn. 06450), in which the robot first diluted a standard 50 millimolar DMSO solution of candidate insecticide with a 1:1 water/acetone solution (V/V) in a ratio of 1:7 stock solution to water/acetone. The robot subsequently pipetted 40 microliters of the so-prepared solution onto the surface of the diet in each of three wells in the 24 multi-well plate. The process was repeated with solutions of seven other candidate insecticides. Once treated, the contents of the multi-well plate were allowed to dry, leaving 0.25 millimoles of candidate insecticide on the surface of the diet, or a concentration of 0.25 millimolar. Appropriate untreated controls containing only DMSO on the diet surface were also included in this test.
For evaluations of the insecticidal activity of a candidate insecticide at varying rates of application, the test was established as described above using sub-multiples of the standard 50 millimolar DMSO solution of candidate insecticide. For example, the standard 50 millimolar solution was diluted by the robot with DMSO to give 5, 0.5, 0.05, 0.005, 0.0005 millimolar, or more dilute solutions of the candidate insecticide. In these evaluations there were six replicates of each rate of application placed on the surface of the diet in the 24 multi-well plate, for a total of four rates of application of candidate insecticide in each plate.
In each well of the test plate was placed one second instar tobacco budworm larvea, each weighing approximately five milligrams. After the larvae were placed in each well, the plate was sealed with clear polyfilm adhesive tape. The tape over each well was perforated to ensure an adequate air supply. The plates were then held in a growth chamber at 25° C. and 60% relative humidity for five days (light 14 hours/day).
After the five-day exposure period insecticidal activity for each rate of application of candidate insecticide was assessed as percent inhibition of insect weight relative to the weight of insects from untreated controls, and percent mortality when compared to the total number of insects infested.
The test compounds of formula I are identified by numbers that correspond to those in Table 1.

Compound	Percent Mortality [%]	Percent Growth Inhibition [%]
O=C(NN=C(c1ccc(OC(F)(F)F)cc1)C1CCN(Cc2ccc(Oc3ccccn3)cc2)CC1)c1ccc(C(F)(F)F)cc1 [Compound 132]	83	100
[O-][N+]1(Cc2ccc(Oc3ncccn3)cc2)CCN(C(c2ccc(Cl)cc2)c2ccc(C(F)(F)F)cc2)CC1 (stereo not shown) [Compound 179]	100	100
Clc1ccc(C(c2ccc(Cl)cc2)N2CCN(Cc3ccc(Oc4ncccn4)cc3)CC2)cc1 [Compound 167]	100	100
CCn1nnc(-c2ccc(CN3CCC(C(=NNc4ccc(OC(F)(F)F)cc4)c4ccc(OC(F)(F)F)cc4)CC3)cc2)n1 [Compound 124]	100	100
Cc1ccc(C(=O)NN=C(c2ccc(OC(F)(F)F)cc2)C2CCN(Cc3ccc(-c4nnn(C)n4)cc3)CC2)cc1 [Compound 145]	100	100
COc1ccc(C(=O)NN=C(c2ccc(OC(F)(F)F)cc2)C2CCN(Cc3ccc(-c4nnn(C)n4)cc3)CC2)cc1 [Compound 146]	100	100
CCn1nnc(-c2ccc(CN3CCC(C(=NNS(=O)(=O)c4ccc(C(F)(F)F)cc4)c4ccc(OC(F)(F)F)cc4)CC3)cc2)n1 [Compound 129]	100	95
CCn1nnc(-c2ccc(CN3CCC(C(=NNc4ccc(OC)cc4)c4ccc(OC(F)(F)F)cc4)CC3)cc2)n1 [Compound 116]	100	100
CCCOc1ccc(CN2CCC(C(=NNc3ccc(OC(F)(F)F)cc3)c3ccc(OC(F)(F)F)cc3)CC2)cc1 [Compound 97]	100	100
[O-][N+]1(Cc2ccc(Oc3ncccn3)cc2)CCN(C(c2ccc(C(F)(F)F)cc2)c2ccc(C(F)(F)F)cc2)CC1 [Compound 180, 2-{4-[(4-{bis[4-(trifluoromethyl)phenyl]methyl}1-oxypiperazinyl)methyl]phenoxy}pyrimidine]	100	100
CCn1nnc(-c2ccc(CN3CCC(C(=NNc4ccc(C(F)(F)F)cc4)c4ccc(C(F)(F)F)cc4)CC3)cc2)n1 [Compound 118]	100	96
CCn1nnc(-c2ccc(CN3CCC(C(=NNc4ccc(OC(F)(F)F)cc4)c4ccc(C(F)(F)F)cc4)CC3)cc2)n1 [Compound 119]	100	100
CCn1nnc(-c2ccc(CN3CCC(C(=O)c4ccc(OC(F)(F)F)cc4)CC3)cc2)n1 [Compound 72, 1-{[4-(2-ethyl(1,2,3,4-tetraazol-5-yl))phenyl]methyl}(4-piperidyl)4-(trifluoromethoxy)phenyl ketone]	–	95
O=C(c1ccc(C(F)(F)F)cc1)C1CCNCC1 [Compound 3, 4-piperidyl 4-(trfluoromethyl)phenyl ketone]	100	100
CCn1nnc(-c2ccc(CN3CCC(C(=NNc4ccc(C(C)C)cc4)c4ccc(OC(F)(F)F)cc4)CC3)cc2)n1 [Compound 114]	100	100
CCCOc1ccc(CN2CCC(C(=O)c3ccc(OC(F)(F)F)cc3)CC2)cc1 [Compound 43]	100	100
[O-][N+]1(Cc2ccc(Oc3ccccc3F)cc2)CCN(C(c2ccc(OC(F)(F)F)cc2)c2ccc(OC(F)(F)F)cc2)CC1 [Compound 172]	100	100
O=C(c1ccc(OC(F)(F)F)cc1)C1CCN(Cc2ccc(F)cc2)CC1 [Compound 27]	0	97
COc1ccc(CN2CCC(C(=NNc3ccc(OC(F)(F)F)cc3)c3ccc(OC(F)(F)F)cc3)CC2)cc1 [Compound 96]	100	96
Cn1nnc(-c2ccc(CN3CCC(C(=NNC(=O)c4ccc(F)cc4)c4ccc(OC(F)(F)F)cc4)CC3)cc2)n1 [Compound 143]	17	87
FC(F)(F)c1ccc(C(c2ccc(Cl)cc2)N2CCN(Cc3ccc(Oc4ncccn4)cc3)CC2)cc1 (stereo not shown) [Compound 168]	100	100
[O-][N+]1(Cc2ccc(Oc3ncccn3)cc2)CCN(C(c2ccc(Cl)cc2)c2ccc(Cl)cc2)CC1 [Compound 178]	0	100
